The assay concerns the target T1, squalene synthetase (Rattus norvegicus, UniProt Q02769).
T1 construct: Rat liver microsomal preparation; from tissue; host or cells: liver microsomes of male rats (100,000 x g pellet)
T1 sequence (Q02769 1-416): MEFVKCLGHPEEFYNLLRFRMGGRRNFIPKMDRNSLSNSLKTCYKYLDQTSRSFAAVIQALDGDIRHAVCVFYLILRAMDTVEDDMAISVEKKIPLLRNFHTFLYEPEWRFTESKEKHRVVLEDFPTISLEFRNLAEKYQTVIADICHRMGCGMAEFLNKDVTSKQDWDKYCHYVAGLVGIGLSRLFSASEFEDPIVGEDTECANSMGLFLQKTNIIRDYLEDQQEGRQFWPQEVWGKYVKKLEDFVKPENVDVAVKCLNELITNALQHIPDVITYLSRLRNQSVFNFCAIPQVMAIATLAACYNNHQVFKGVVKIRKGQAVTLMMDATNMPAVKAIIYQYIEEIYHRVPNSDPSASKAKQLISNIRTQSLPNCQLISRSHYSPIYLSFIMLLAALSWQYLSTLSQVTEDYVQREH
Briefly: Squalene synthetase inhibition assay in vitro (rat liver microsomal preparation, 3H-FPP). It counts as biochemical. The conditions noted are these: rat liver microsomal enzyme, 3H-FPP 10 μM final conc.; for SQUALENE SYNTHETASE INHIBITION % max: maximal inhibition; for IC50: 10 min incubation at 37° C. The method, then:
Squalene synthease inhibition assay in vitro
a) Rat liver microsomal preparation
Male rats weighing 200 to 300 g were decapitated and the liver removed and placed in 10 ml icecold 0.25M sucrose, 2 mM EDTA and 50 mM Tris, HCl buffer pH 7.4. The liver was homogenized in 3×volume buffer relative to weight using a glass teflon Potter-Elvehjem homogenizer set to 1000 rpm.
The homogenate was then centrifuged for 15 min. at 12,000×g at 4° C. The resultant supernatant was gently decanted into 10 ml ultracentrifuge vials and treated at 100,000×g for 60 min. at 4° C. The microsomal pellet was resuspended in a final volume of 1 ml icecold 0.1M phosphate buffer pH 7.4 per gram liver tissue by gentle homogenization in a glass Potter-Elvehjem at 800 rpm. Aliquots of 0.5 ml (approx. 20 mg/ml protein) was stored at -80° C. until further use in the squalene synthetase inhibition assay.
To begin the assay, 20 μl of the compound of this invention or vehicle solution is added to each 16×150 screw-cap culture tube on ice. Then 580 μl of N2 flushed assay buffer is pipetted into each tube. 100 μl of cofactor is next added to each tube, followed by 1 00 μl of a dilution of microsomal enzyme (approximately 80 μg protein). The tubes are preincubated for 10 min. at 37° C., and 200 μl of the ^3 H-FPP (200,000 dpm, 10 μM final conc.) is added to each tube at two second intervals. The tubes are then incubated for exactly 10 min., shaking at 150 oscillations per min. After the 10 min. incubation, the reaction is stopped by the addition of 1 ml of 15% KOH in ethanol, and the tubes are incubated for 30 min. in a 65° C. water bath for saponification of lipids and solubilization of proteins. The tubes are cooled on ice for five min. The samples are next extracted with 5 ml of petroleum ether by shaking for 10 min. at low speed on a metabolic shaker. Each lower aqueous layer is frozen in a dry ice/alcohol bath (2-propanol/methanol, 1:1), and each organic layer is poured into another set of 16 ×150 screw-top culture tubes containing 2 ml of deionized water. Each ether layer is washed by vortexing each tube for 5 sec. The aqueous layers are again frozen in the dry ice/alcohol bath, and the ether is poured into scintillation vials. 10 ml of AquaSol® is next added to each vial, and the vials are counted for 5 min. in a scintillation counter. Percent inhibitions are calculated from the counts obtained.
In general terms: Microsomes from liver hold many membrane-bound enzymes, among them those of drug oxidation.

Take `CCCCCCCSc1nsnc1C1CN2CCC1CC2` (centres unmarked): the “SQUALENE SYNTHETASE INHIBITION % max” value was found to be 92% and half-maximal inhibition (IC50) required 890 nM.

For `c1ccc(CCCSc2nsnc2C2CN3CCC2CC3)cc1` (centres unmarked), the “SQUALENE SYNTHETASE INHIBITION % max” value was found to be 89% and the IC50 stood at 900 nM.

With `c1ccc(Oc2ccc(COc3nsnc3C3CN4CCC3CC4)cc2)cc1` (centres unmarked), the “SQUALENE SYNTHETASE INHIBITION % max” value is 83% and the IC50 is 300 nM.

Turning to `c1ccc(-c2ccc(COc3nsnc3C3CN4CCC3CC4)cc2)cc1` (centres unmarked), the “SQUALENE SYNTHETASE INHIBITION % max” value is listed as 60% and the IC50 was 3900 nM.

`c1ccc(CCCSc2nsnc2[C@H]2CN3CC[C@@H]2C3)cc1` (relative stereo): the “SQUALENE SYNTHETASE INHIBITION % max” value stood at 55% and the midpoint of inhibition, the IC50, lay at 12400 nM.

With `c1ccc(CCCSc2nsnc2[C@H]2CN3CCC[C@@H]2C3)cc1` (single isomer, unassigned), the “SQUALENE SYNTHETASE INHIBITION % max” value came out at 72% and it took 5100 nM to reach half-maximal inhibition (IC50).

With `c1ccc(CCCSc2nsnc2[C@@H]2CN3CCC[C@@H]2C3)cc1` (single isomer, unassigned), the “SQUALENE SYNTHETASE INHIBITION % max” value worked out at 80% and the IC50 turned out to be 1100 nM.

What is called IC50 is the midpoint of a concentration-inhibition curve. A low value points to higher potency.

The values above are taken from US5750538A, “Method of treating hypercholesterolemia and related disorders” (Novo Nordisk A/S, priority 1996, dated 1998).
